Where two headings read alike, the source gives them in different places.
Legend:
Type in all cases: cell-based
[1] = tested on: P. falciparum (NF54 or 3D7 strain); experiment: P. falciparum proliferation assay in infected human blood cells (SYBR Green); conditions: Plasmodium falciparum
Method: Assay for P. falciparum Proliferation in Infected Human Blood Cells
Compounds of the invention can be assayed to measure their capacity to inhibit proliferation of P. falciparum parasitemia in infected red blood cells. This parasite proliferation assay measures the increase in parasite DNA content using a DNA intercalating dye, SYBR Green® (INVITROGEN®) which has a high affinity for double stranded DNA.
NF54 or 3D7 P. falciparum strain is grown in complete culturing media until parasitemia reaches 3% to 8% with O+ human erythrocytes. […] 20 μl of screening media is dispensed into 384 well assay plates. 50 nl of compounds of the invention (in DMSO), including antimalarial controls (mefloquine, pyrimethamine and artemisinin), are then transferred into the assay plates, as well as DMSO alone to serve as a negative control for inhibition. Then 30 μl of a suspension of a NF54 or 3D7 P. falciparum infected erythrocytes in screening media is dispensed into the assay plates such that the final hematocrit is 2.5% with a final parasitemia of 0.3%. The plates are placed in a 37° C. incubator for 72 hours in a low oxygen environment containing 93% N2, 4% CO2, and 3% O2 gas mixture. 10 μl of lysis buffer (saponin, triton-X, EDTA) containing a 10× solution of SYBR Green I® in RPMI media is dispensed into the plates. The plates are lidded and kept at room temperature overnight for the lysis of the infected red blood cells. The fluorescence intensity is measured (excitation 425 nm, emission 530 nm) using the Envision™ system (Perkin Elmer). The percentage inhibition of 50%, EC50, is calculated for each compound.

[2] = tested on: Plasmodium yoelii (17XNL) sporozoites; experiment: Liver stage P. yoelii sporozoite invasion assay in HepG2-A16-CD81EGFP cells
From the text: Assay for Proliferation of Parasite in Infected Liver Cells
Compounds of the invention can be assayed to measure their capacity to inhibit proliferation of parasites in liver cells. The proliferation is quantified by determine the number of infected cells by immunofluorescence.
Due to the difficulty of successfully infecting immortalized human liver cell lines with the human malaria sporozoites (liver-stage parasite), rodent malaria sporozoites from Plasmodium yoelii (17XNL) and P. berghei (ANKA) are the preferred surrogate. Sporozoites are obtained from Anopheles stephensi mosquitoes supplied by the New York University Insectary, which ships the malaria-infected mosquitoes 10-13 days following the ingestion of an infective blood meal.
A transgenic HepG2 cell line expressing the tetraspanin CD81 receptor (HepG2-A16-CD81^EGFP) is used to increase the infectivity rate of rodent-malaria sporozoites into human cells. HepG2-A16-CD81^EGFP cells are stably transformed to express a GFP-CD81 fusion protein. A continuous in vitro culture of this line was maintained at 37° C. in 4% CO2 in complete media (CM) which contains: DMEM (Invitrogen, Carlsbad, USA) supplemented with 10% FCS, 0.29 mg/ml glutamine, 100 units penicillin and 100 μg/ml streptomycin (SigmaAldrich, USA).
Liver Stage P. yoelii Sporozoite Invasion Assay
Twenty to twenty-six hours prior to sporozoite infection, 7.5×10^3 HepG2-A16-CD81^EGFP cells are seeded into 384-well plates (Aurora 384 IQ-EB black plates with clear bottoms; 50 μl of 1.5×10^5 cells/ml in CM). These plates are incubated at 37° C. with 4% CO2 overnight. Two hours prior to infection, 50 nl of compound dissolved in DMSO (0.1% final DMSO concentration per well) were transferred with a PinTool (GNF Systems) into the assay plates (10 μM final concentration). A 1:3 serial dilution of atovaquone (10 μM at the highest final concentration) and wells treated only with DMSO were used as positive and negative controls, respectively.
Freshly dissected salivary glands from infected mosquitoes were homogenized in a glass tissue grinder, filtered twice through Nylon cell strainers (40 μm pore size, BD Falcon) and counted using a hemocytometer. The assay plate with HepG2-A16-CD81^EGFP cells and compound were then infected with 8×10^3 sporozoitesper well and the plates are subjected to a centrifugal force of 650×g to pellet the sporozoites onto the liver cell monolayer. The assay plate is incubated at 37° C. for 2 hours to permit sporozoite invasion, then the media is aspirated from the media plate, and replaced with 50 μl CM (containing a 5× concentration of penicillin/streptomycin; 500 units penicillin and 0.5 mg streptomycin per ml) per well. 50 nl of compound is re-introduced by PinTool and the assay plate incubated for 48 hours at 37° C. before quantification of infected cells by immunofluorescence.
Atovaquone and uninfected wells were used as controls on each plate. Two replicate plates are tested for each assay.
After fixing the cells by addition of 12.5 μl of 20% solution of paraformaldehyde (EMS, Hatfield, USA) to each assay well (4% final formaldehyde concentration), membranes were permeabilized with 0.5% Triton-X-100 (Thermo Fisher Scientific) and EEFs were stained using a mouse polyclonal serum raised against the Plasmodium yoelii heat shock protein 70 (PyHSP70), a DyLight 649 goat anti-mouse IgG, Fc(gamma) fragment specific secondary antibody (Jackson Immuno Research, Cat#115-495-071) and the Hoechst 33342 nucleic acid dye (Invitrogen, Carlsbad, USA). Stained EEFs were then quantified using the Opera Confocal High Content Screening System (Perkin Elmer, Waltham, USA). Images were collected using a 20× objective lens (20×/0.45 NA, LWD Plan Fluor, Olympus) at a binning of 2, using a 365 nm Xeon arc lamp illumination to detect the Hoechst-labeled nuclei and 635 nm laser line to excite DyLight649-labeled parasites. The image resolution yielded was approximately 0.66 μm/pixel (˜0.43 μm 2/pixel). […]

[3] = tested on: Plasmodium berghei line expressing luciferase (Pb-luc) sporozoites; experiment: Liver stage P. berghei luciferase proliferation assay in CD81-GFP-HepG2 cells
Method: Liver Stage P. berghei Luciferase Proliferation Assay
CD81-GFP-HepG2 cells (obtained from the lab of Dominique Mazier) were seeded into GNF custom Greiner plates (1536-well, white, TC-treated, solid bottom). A final density of 3000 cells/well was achieved by dispensing 5 ul per well of a 600,000 cells/mL resuspended in Assay Media (AM; phenol-red free DMEM, 2% FBS, 5×PSG) via a MicroFlo (Biotek; 5 ul dispense cassette). The seeded assay plates were incubated overnight at 37° C. in an incubator with 5% CO2. The following day, a 10 nL volume of compound was transferred acoustically (ECHO 525, Labcyte Inc.) to each well in the assay plate. Sporozoite forms of a Plasmodium berghei line expressing luciferase (Pb-luc) were dissected and purified from infected Anopheles stephensi mosquitoes (provided by the NYU insectary) as previously described by Meister et al. (Science, 2011). Purified sporozoites (spz) were stored at 250 spz/uL in chilled PBS supplemented with 3% BSA. 3 uL of Pb-luc spz solution was dispensed to each assay well using a Bottlevalve equipped with a custom, single-tip dispense head (GNF Systems). Assay plates were centrifuged at 330×g for 3 minutes to pellet the spz, then the assay plates were returned to the 37° C. incubator for 48 h. Luciferase signal, which corresponds with parasite proliferation, was detected by adding 2 uL of BrightGlo (Promega) to each well using the MicroFlo (Biotek; 1 ul cassette). Luminescence was immediately measured on an Envision MultiLabel Plate Reader (PerkinElmer).

[4] = Erythrocyte, infected human erythrocytes, 72 hours, SYBR Green fluorescence, read-out: EC50 (nM), inhibitory efficacy in delaying P. falciparum proliferation in infected human blood cells
[5] = values without * in Table 2, HepG2-A16-CD81EGFP liver cells, 48 hours, immunofluorescence, read-out: EC50 (nM), P. yoelii Sporozoite Invasion Assay
[6] = read-out: EC50, P. yoelii Sporozoite Invasion Assay
[7] = read-out: EC50, P. berghei luciferase Proliferation Assay
[8] = values marked * in Table 2, CD81-GFP-HepG2 cells, 48 h, luminescence, read-out: EC50 (nM), P. berghei luciferase Proliferation Assay

Row | SMILES | EC50 [1, 4] [nM] | EC50 [2, 5] [nM] | EC50 [3, 8] [nM] | other results
1 | CNC(=O)c1ccc(-c2cnn3ccc(C(=O)N(C)c4ccc(Cl)cc4)cc23)cn1 [Example 109, N-(4-Chlorophenyl)-N-methyl-3-(6-(methylcarbamoyl)pyridin-3-yl)pyrazolo[1,5-a]pyridine-5-carboxamide] | 19 | 62 | – | –
2 | CN(C(=O)c1ccn2ncc(-c3ccc(C(=O)NCCO)cc3)c2c1)c1ccc(C#N)cn1 [Example 102, N-(5-Cyanopyridin-2-yl)-3-(4-((2-hydroxyethyl)carbamoyl)phenyl)-N-methylpyrazolo[1,5-a]pyridine-5-carboxamide] | 10 | 660 | – | –
3 | CNC(=O)c1ccc(-c2cnn3ccc(C(=O)N(C)c4ccc(OCCN)cn4)cc23)cc1 [Example 111, N-(5-(2-Aminoethoxyl)pyridin-2-yl)-N-methyl-3-(4-(methylcarbamoyl)phenyl)pyrazolo[1,5-a]pyridine-5-carboxamide] | 6300 | > 10000 | – | –
4 | CNC(=O)c1ccc(-c2cnn3ccc(C(=O)N(c4ccc(C#N)cn4)C(C)(C)C)cc23)cc1 [Example 119, N-(tert-Butyl)-N-(5-cyanopyridin-2-yl)-3-(4-(methylcarbamoyl)phenyl)pyrazolo[1,5-a]pyridine-5-carboxamide] | 95 | 56 | – | –
5 | CNC(=O)c1ccc(-c2cnn3ccc(C(=O)N(c4ccc(C#N)cc4)C4CC4)cc23)cc1 [Example 118, N-(4-Cyanophenyl)-N-cyclopropyl-3-(4-(methylcarbamoyl)phenyl)pyrazolo[1,5-a]pyridine-5-carboxamide] | 3 | 1 | – | –
6 | CN(C(=O)c1ccn2ncc(-c3ccc(C(=O)NCCN)cc3)c2c1)c1ccc(C#N)cn1 [Example 104, 3-(4-((2-Aminoethyl)carbamoyl)phenyl)-N-(5-cyanopyridin-2-yl)-N-methylpyrazolo[1,5-a]pyridine-5-carboxamide] | 125 | 1200 | – | –
7 | CNC(=O)c1ccc(-c2cnn3ccc(C(=O)N(C)c4ccc(C#N)cc4)cc23)cn1 [Example 97, N-(4-Cyanophenyl)-N-methyl-3-(6-(methylcarbamoyl)pyridin-3-yl)pyrazolo[1,5-a]pyridine-5-carboxamide] | 13 | 92 | – | –
8 | CN(C(=O)c1ccn2ncc(-c3ccc(C(N)=O)cc3)c2c1)c1ccc(C#N)cn1 [Example 32, 3-(4-carbamoylphenyl)-N-(5-cyanopyridin-2-yl)-N-methylpyrazolo[1,5-a]pyridine-5-carboxamide] | – | – | – | EC50 ([1]; read-out: EC50, P. falciparum Proliferation Assay): < 5 nM; EC50 [2, 6]: < 10 nM
9 | CN(C(=O)c1ccn2ncc(-c3ccc(C(N)=O)cc3)c2c1)c1ccc(C#N)cc1 [Example 19, 3-(4-carbamoylphenyl)-N-(4-cyanophenyl)-N-methylpyrazolo[1,5-a]pyridine-5-carboxamide] | – | – | – | EC50 [2, 6]: < 10 nM
10 | CCN(C(=O)c1ccn2ncc(-c3ccc(C(=O)NC)cc3)c2c1)c1ccc(C(F)(F)F)cn1 [Example 96, N-ethyl-3-(4-(methylcarbamoyl)phenyl)-N-(5-(trifluoromethyl)pyridin-2-yl)pyrazolo[1,5-a]pyridine-5-carboxamide] | 12 | – | 4 | EC50 [3, 7]: ≤ 20 nM
11 | CN(C(=O)c1ccn2ncc(-c3ccc(C(F)(F)F)cc3)c2c1)c1ccc(C#N)cc1 [Example 1, N-(4-cyanophenyl)-N-methyl-3-(4-(trifluoromethyl)phenyl)pyrazolo[1,5-a]pyridine-5-carboxamide] | – | – | – | EC50 [2, 6]: < 10 nM
12 | CNC(=O)c1ccc(-c2cnn3ccc(C(=O)N(c4ccc(Cl)cc4)C4CC4)cc23)cn1 [Example 143, N-(4-Chlorophenyl)-N-cyclopropyl-3-(6-(methylcarbamoyl)pyridin-3-yl)pyrazolo[1,5-a]pyridine-5-carboxamide] | 12 | – | 7 | –
13 | CNC(=O)c1ccc(-c2cnn3ccc(C(=O)N(c4ccc(C(F)(F)F)cn4)C4CCC4)cc23)cc1 [Example 160, N-cyclobutyl-3-(4-(methylcarbamoyl)phenyl)-N-(5-(trifluoromethyl)pyridin-2-yl)pyrazolo[1,5-a]pyridine-5-carboxamide] | 4 | – | 4 | –
14 | CNC(=O)c1ccc(-c2cnn3ccc(C(=O)N(c4ccc(C#N)cc4)C4CC4)cc23)cn1 [Example 137, N-(4-Cyanophenyl)-N-cyclopropyl-3-(6-(methylcarbamoyl)pyridin-3-yl)pyrazolo[1,5-a]pyridine-5-carboxamide] | 12 | – | 10 | –
15 | CNC(=O)c1ccc(-c2cnn3ccc(C(=O)N(c4ccc(C#N)cc4)C(C)C)cc23)cn1 [Example 146, N-(4-Cyanophenyl)-N-isopropyl-3-(6-(methylcarbamoyl)pyridin-3-yl)pyrazolo[1,5-a]pyridine-5-carboxamide] | 45 | – | 20 | –
16 | CCN(C(=O)c1ccn2ncc(-c3ccc(C(=O)NC)cc3)c2c1)c1ccc(F)cn1 [Example 95, N-ethyl-N-(5-fluoropyridin-2-yl)-3-(4-(methylcarbamoyl)phenyl)pyrazolo[1,5-a]pyridine-5-carboxamide] | 23 | – | 5 | EC50 [3, 7]: ≤ 20 nM

From US9556169B2, “Compounds and compositions for the treatment of parasitic diseases” (NOVARTIS AG, priority 2012, dated 2017)
